Experimental data reported in paper PMC7525662, “Preclinical dosimetry models and the prediction of clinical doses of novel positron emission tomography radiotracers” (Scientific Reports, 2020).
Marks after values point to notes of the source that are not given here.

What was measured:
Set-up in all cases: species or system Sprague–Dawley rats
Conditions in all cases: rat, in vivo
[1] = OLINDA/EXM predicted clinical doses: adult female phantom, non-normalised τ, FBP
Procedure: (§1) PET studies were reconstructed using filtered-back projection (FBP) and Mediso’s iterative Tera-Tomo 3D reconstruction algorithm with the following settings: 4 iterations, 6 subsets, full detector model, normal regularization, spike filter on, voxel size 0.4 mm and 400‒600 keV energy window. PET data were corrected for randoms, scatter and attenuation. Time-activity curves for each source organ, whole-body and remainder of the body were plotted. […] Residence times (τ) were determined for each radiotracer in source organs, whole-body and remaining (any activity assigned to the whole-body but not assigned to a source organ). Each preclinical source organ’s τ was determined by calculating the area under its respective time-activity curve (activity normalised to the percentage maximum injected dose as a function of time) using the trapezoid method. […] From each individual animal, eight dosimetry models were constructed from all possible combinations of image reconstruction method (FBP or iterative), τ (non-normalised or normalised to human organ masses), and sex of phantom (male or female). Supplementary table 6. Predicted clinical absorbed organ doses and whole-body effective doses of PET radiotracers using non-normalised (preclinical) adult female source organ residence times from filtered backprojection reconstructions.

[2] = OLINDA/EXM predicted clinical doses: adult male phantom, normalised τ, iterative
Procedure: as §1, with “table 11.” for “table 6.”, “using normalised” for “using non-normalised (preclinical)”, “adult male” for “adult female”, “from iterative” for “from filtered backprojection”

[3] = Residence times normalised to human organ masses, FBP reconstruction
Procedure: as §1, with “1. Scaling (normalisation) factors applied to residence times” for “6. Predicted clinical absorbed organ doses and whole-body effective doses”, “in male Sprague-Dawley rats to predict human” for “using non-normalised (preclinical)”, “adult” for “adult female source organ”, “times. […] Stabin et al. 2006 ^4); WB: Whole Body.” for “times from filtered backprojection reconstructions.”

[4] = OLINDA/EXM predicted clinical doses: adult female phantom, normalised τ, FBP
Procedure: as §1, with “8.” for “6.”, “normalised” for “non-normalised (preclinical)”

Substance: NOTA-RGDfK [existing Al^18F-labelled NOTA-RGDfK peptide PET radiotracer; precursor NOTA-RGDfK (1)]
- Effective Dose (mSv/MBq), Average ± SD [1]: 6.49E-02 mSv/MBq
- Estimated Absorbed Dose of Organ, Average: Adrenals [1]: 1.46E-02 mGy/MBq
- Estimated Absorbed Dose of Organ, Average: Brain [1]: 3.20E-03 mGy/MBq
- Estimated Absorbed Dose of Organ, Average: Breasts [1]: 1.01E-02 mGy/MBq
- Estimated Absorbed Dose of Organ, Average: Gallbladder Wall [1]: 1.49E-02 mGy/MBq
- Estimated Absorbed Dose of Organ, Average: Heart Wall [1]: 9.41E-03 mGy/MBq
- Estimated Absorbed Dose of Organ, Average: Kidneys [1]: 2.70E-02 § mGy/MBq
- Estimated Absorbed Dose of Organ, Average: LLI Wall [1]: 1.62E-01 ‡ mGy/MBq
- Estimated Absorbed Dose of Organ, Average: Liver [1]: 9.39E-03 mGy/MBq
- Estimated Absorbed Dose of Organ, Average: Lungs [1]: 7.79E-03 mGy/MBq
- Estimated Absorbed Dose of Organ, Average: Muscle [1]: 1.61E-02 mGy/MBq
- Estimated Absorbed Dose of Organ, Average: Osteogenic Cells [1]: 2.13E-02 mGy/MBq
- Estimated Absorbed Dose of Organ, Average: Ovaries [1]: 3.85E-02 mGy/MBq
- Estimated Absorbed Dose of Organ, Average: Pancreas [1]: 1.53E-02 mGy/MBq
- Estimated Absorbed Dose of Organ, Average: Red Marrow [1]: 1.52E-02 mGy/MBq
- Estimated Absorbed Dose of Organ, Average: Skin [1]: 1.08E-02 mGy/MBq
- Estimated Absorbed Dose of Organ, Average: Small Intestine [1]: 2.41E-02 mGy/MBq
- Estimated Absorbed Dose of Organ, Average: Spleen [1]: 1.45E-02 mGy/MBq
- Estimated Absorbed Dose of Organ, Average: Stomach Wall [1]: 1.50E-02 mGy/MBq
- Estimated Absorbed Dose of Organ, Average: Thymus [1]: 1.25E-02 mGy/MBq
- Estimated Absorbed Dose of Organ, Average: Thyroid [1]: 1.15E-02 mGy/MBq
- Estimated Absorbed Dose of Organ, Average: Total Body [1]: 1.63E-02 mGy/MBq
- Estimated Absorbed Dose of Organ, Average: ULI Wall [1]: 2.11E-02 mGy/MBq
- Estimated Absorbed Dose of Organ, Average: Urinary Bladder Wall [1]: 6.07E-01 † mGy/MBq
- Estimated Absorbed Dose of Organ, Average: Uterus [1]: 4.81E-02 mGy/MBq
- Effective Dose [2]: 2.17E-02 mSv/MBq
- Estimated Absorbed Dose of Organ, Adrenals [2]: 6.76E-03 mGy/MBq
- Estimated Absorbed Dose of Organ, Brain [2]: 2.27E-03 mGy/MBq
- Estimated Absorbed Dose of Organ, Breasts [2]: 4.34E-03 mGy/MBq
- Estimated Absorbed Dose of Organ, Gallbladder Wall [2]: 7.11E-03 mGy/MBq
- Estimated Absorbed Dose of Organ, Heart Wall [2]: 1.28E-02 mGy/MBq
- Estimated Absorbed Dose of Organ, Kidneys [2]: 2.74E-02 ‡ mGy/MBq
- Estimated Absorbed Dose of Organ, LLI Wall [2]: 5.51E-02 § mGy/MBq
- Estimated Absorbed Dose of Organ, Liver [2]: 7.32E-03 mGy/MBq
- Estimated Absorbed Dose of Organ, Lungs [2]: 6.59E-03 mGy/MBq
- Estimated Absorbed Dose of Organ, Muscle [2]: 6.45E-03 mGy/MBq
- Estimated Absorbed Dose of Organ, Osteogenic Cells [2]: 8.36E-03 mGy/MBq
- Estimated Absorbed Dose of Organ, Pancreas [2]: 6.93E-03 mGy/MBq
- Estimated Absorbed Dose of Organ, Red Marrow [2]: 6.11E-03 mGy/MBq
- Estimated Absorbed Dose of Organ, Skin [2]: 4.44E-03 mGy/MBq
- Estimated Absorbed Dose of Organ, Small Intestine [2]: 9.30E-03 mGy/MBq
- Estimated Absorbed Dose of Organ, Spleen [2]: 6.39E-03 mGy/MBq
- Estimated Absorbed Dose of Organ, Stomach Wall [2]: 6.44E-03 mGy/MBq
- Estimated Absorbed Dose of Organ, Testes [2]: 8.41E-03 mGy/MBq
- Estimated Absorbed Dose of Organ, Thymus [2]: 5.44E-03 mGy/MBq
- Estimated Absorbed Dose of Organ, Thyroid [2]: 5.10E-03 mGy/MBq
- Estimated Absorbed Dose of Organ, ULI Wall [2]: 8.07E-03 mGy/MBq
- Estimated Absorbed Dose of Organ, Urinary Bladder Wall [2]: 1.75E-01 † mGy/MBq
- Estimated Absorbed Dose, Total Body [2]: 6.69E-03 mGy/MBq
- Normalised Residence Time (h), Average: Remaining [3]: 1.98 h
- Effective Dose (mSv/MBq), Average ± SD [4]: 2.71E-02 mSv/MBq
- Estimated Absorbed Dose of Organ, Average: Adrenals [4]: 1.41E-02 mGy/MBq
- Estimated Absorbed Dose of Organ, Average: Brain [4]: 4.10E-03 mGy/MBq
- Estimated Absorbed Dose of Organ, Average: Breasts [4]: 1.02E-02 mGy/MBq
- Estimated Absorbed Dose of Organ, Average: Gallbladder Wall [4]: 1.36E-02 mGy/MBq
- Estimated Absorbed Dose of Organ, Average: Heart Wall [4]: 1.39E-02 mGy/MBq
- Estimated Absorbed Dose of Organ, Average: Kidneys [4]: 1.95E-02 § mGy/MBq
- Estimated Absorbed Dose of Organ, Average: LLI Wall [4]: 6.76E-02 ‡ mGy/MBq
- Estimated Absorbed Dose of Organ, Average: Liver [4]: 8.65E-03 mGy/MBq
- Estimated Absorbed Dose of Organ, Average: Lungs [4]: 1.10E-02 mGy/MBq
- Estimated Absorbed Dose of Organ, Average: Muscle [4]: 1.29E-02 mGy/MBq
- Estimated Absorbed Dose of Organ, Average: Osteogenic Cells [4]: 2.00E-02 mGy/MBq
- Estimated Absorbed Dose of Organ, Average: Ovaries [4]: 2.14E-02 mGy/MBq
- Estimated Absorbed Dose of Organ, Average: Pancreas [4]: 1.47E-02 mGy/MBq
- Estimated Absorbed Dose of Organ, Average: Red Marrow [4]: 1.23E-02 mGy/MBq
- Estimated Absorbed Dose of Organ, Average: Skin [4]: 9.76E-03 mGy/MBq
- Estimated Absorbed Dose of Organ, Average: Small Intestine [4]: 1.64E-02 mGy/MBq
- Estimated Absorbed Dose of Organ, Average: Spleen [4]: 1.38E-02 mGy/MBq
- Estimated Absorbed Dose of Organ, Average: Stomach Wall [4]: 1.41E-02 mGy/MBq
- Estimated Absorbed Dose of Organ, Average: Thymus [4]: 1.28E-02 mGy/MBq
- Estimated Absorbed Dose of Organ, Average: Thyroid [4]: 1.16E-02 mGy/MBq
- Estimated Absorbed Dose of Organ, Average: Total Body [4]: 1.31E-02 mGy/MBq
- Estimated Absorbed Dose of Organ, Average: ULI Wall [4]: 1.62E-02 mGy/MBq
- Estimated Absorbed Dose of Organ, Average: Urinary Bladder Wall [4]: 1.54E-01 † mGy/MBq
- Estimated Absorbed Dose of Organ, Average: Uterus [4]: 2.28E-02 mGy/MBq
